Data: patent publication US10456409B2 (priority 2016, dated 2019)
Where two headings read alike, the source gives them in different places.

How the values were obtained:
Assay type in all cases: cell-based, mouse
[1] = system: BMSC cells primed for osteogenesis; conditions: BMSC primed with LCN2 and PRL, then osteogenic media with agent; ATO 10 μM, Cholecalciferol 10 μM, Lovastatin 1 μM, NP101 diluted 1:1 or 1:10 (FIG. 2)
Method: (§1) Mesenchymal stem cells isolation: Bone marrow stromal cells were isolated from six to eight weeks old wild type mice. Femurs and tibias were dissected from surrounding tissues. The epiphyseal growth plates were removed and the marrow was collected by flushing with modified essential medium (MEM) containing 100 U/ml Penicillin, 100 μg/ml streptomycin and 10% fetal bovine serum with a 25 G needle. Single cell suspensions were prepared by passing the cell clumps through an 18G needle followed by filtration through a 70-μm cell strainer.
Priming cells for osteogenseis: An aliquot of cells was diluted 1:1 with 0.04% trypan blue in PBS and viable cells were plated at a density of 2×10^6 cells/cm^2 and in a 35-mm culture dish and exposed to recombinant mouse Prolactin (PRL) (1 ng/ml) and/or Lacritin 2(LCN2) (18 ng/ml) in Alpha MEM media with 20% FBS, L-Glutamine 2 mM and Pen-Strep (1×) for three passages to prime cells for osteogenesis. After the third passage, 50,000 bone marrow stromal cells per well were plated in a 24 well plate in Alpha MEM 20% FBS, L-Glutamine (4 mM), PenStrep (1×) and MEM Non-Essential Amino Acids (1×).
(§2) After cells reached confluence, medium was replaced with osteogenic differentiation medium (OM). Osteogenic differentiation medium (OM) consists of: DMEM, 10% FBS, Pen-Strep (1×), L-Glutamine (2 mM), 10 mM beta glycerol phosphate and 50 μg/ml ascorbic acid. Duplicate wells were exposed to differentiation media without any agent (control), single agent (Cholecalciferol, ATO or Lovastatin) or Nosto-101 combination agents. Media replacement occurred every 2-3 days with fresh differentiation medium (made each time during feeding) with or without single agent or Nosto-101.
Alkaline phosphatase assay: Cells were stained after 4 days exposure in OM differentiation medium for Alkaline Phosphatase (AP) assay. This is a colorimetric assay in which NBT (nitro-blue tetrazolium chloride) and BCIP (5-Bromo-4-chloro-3′-indolyphosphate p-toluidine salt) yields insoluble purple precipitate when reacted with alkaline phosphatase enzyme. […]

[2] = system: bone marrow stromal cells (BMSC), first passage (P1); assay: Alkaline phosphatase assay (NBT/BCIP staining) of primary BMSC (P1) in osteogenic media; conditions: primary BMSC P1, four days in osteogenic media; ATO 10 μM, Cholecalciferol 10 μM, Lovastatin 1 μM, NP101 diluted 1:1 or 1:10 (FIG. 1)
Method: as §1, §2
Alkaline phosphatase assay: Cells were stained after 4 days exposure in OM differentiation medium for Alkaline Phosphatase (AP) assay. This is a colorimetric assay in which NBT (nitro-blue tetrazolium chloride) and BCIP (5-Bromo-4-chloro-3′-indolyphosphate p-toluidine salt) yields insoluble purple precipitate when reacted with alkaline phosphatase enzyme.
After 4 days of culturing cells in OM media, cells were fixed with 4% paraformaldehyde and then washed once with PBS. One ml of One-step NBT/BCIP staining solution (Thermo Fisher) was added per well and the cells were then incubated in the dark for 30 min to 1 h and checked for color development. The reaction was quickly stopped by removing NBT/BCIP and adding water.

[3] = system: Alkaline Phosphatase gene expression in BMSC culture; conditions: four days in OM media, control = 1.00
Method: as §1, §2
qRT-PCR: Total RNA was isolated first with Trizol (Invitrogen) and then with RNeasy Kit (Qiagen). First strand cDNA was generated using a High capacity cDNA reverse transcriptase kit (Abcam). qPCR was performed using a Biorad cycler at 40 cycles of 95° C. for 5 seconds and at 60° C. for 30 seconds. PCR product was detected using SybrGreen (BioRad). Primers used for amplifications were Actin: Forward 5′-CACAGCTTCTTTGCAGCTCCT-3′ (SEQ ID NO:1), Reverse 5′-CGT CAT CCA TGG CGA ACT G-3′ (SEQ ID NO:2); Alk Phos: Forward 5′-CACGCGATGCAACACTCAGG-3′ (SEQ ID NO:3), Reverse 5′-GCATGTCCCCGGGCTCAAAGA-3′ (SEQ ID NO:4).

Molecule	ALP activity (presence of bluish/purple cells) [1]	alkaline phosphatase activity (number of blue colored cells) [2]	ALP gene expression fold change ([3]; 10 μm agent)	ALP gene expression fold change ([3]; 1 μm agent)
C=C1CC[C@H](O)C/C1=C/C=C1\CCC[C@]2(C)[C@@H]([C@H](C)CCCC(C)C)CC[C@@H]12 [Cholecalciferol]	clearly diminish ALP activity	decreases	0.350 ± 0.02 fold	–
CC[C@H](C)C(=O)O[C@H]1C[C@@H](C)C=C2C=C[C@H](C)[C@H](CC[C@@H]3C[C@@H](O)CC(=O)O3)[C@H]21 [Lovastatin]	clearly diminish ALP activity	decreases	–	0.316 ± 0.02 fold
Arsenic trioxide [ATO]	clearly diminish ALP activity	decreases	0.105 ± 0.01 fold	–
